Measured values as given in ChEMBL document CHEMBL2163213, “Synthesis and bioevaluation of novel 3,4,5-trimethoxybenzylbenzimidazole derivatives that inhibit Helicobacter pylori-induced pathogenesis in human gastric epithelial cells” (Eur J Med Chem, 2012).
In brackets after ≈: the same amount, converted by molar mass. Activity calls are given as the source filed them. The calls are words filed in the database; no cut-off is given here.

Tests used:
[1] = tested on: AGS; test: Cytotoxicity against human AGS cells assessed as cell viability by MTT assay; assay type: cell-based
[2] = Antimicrobial activity against Helicobacter pylori 26695 ATCC 700392 at 100 ug/ml by disk agar diffusion method; assay type: functional; conditions: read-out: DIZ
[3] = Antimicrobial activity against Helicobacter pylori 26695 ATCC 700392 at 50 ug/ml by disk agar diffusion method; assay type: functional; conditions: read-out: DIZ
[4] = Antimicrobial activity against Helicobacter pylori 26695 ATCC 700392 at pH 5 by microdilution method; assay type: functional
[5] = Antimicrobial activity against Helicobacter pylori 26695 ATCC 700392 at pH 7 by microdilution method; assay type: functional
[6] = tested on: Helicobacter pylori; test: Antimicrobial activity against metronidazole and clarithromycin-resistant Helicobacter pylori v1254 at pH 5 by microdilution method; assay type: functional
[7] = Antimicrobial activity against Helicobacter pylori 26695 ATCC 700392 at 800 ug/ml by disk agar diffusion method; assay type: functional; conditions: read-out: DIZ
[8] = tested on: Helicobacter pylori; test: Inhibition of Helicobacter pylori adhesion to human AGS cells at 20 ug/ml after 6 hrs by gentamicin assay relative to control; assay type: functional
[9] = tested on: Helicobacter pylori; test: Inhibition of Helicobacter pylori invasion to human AGS cells at 20 ug/ml after 6 hrs by gentamicin assay relative to control; assay type: functional
[10] = tested on: Helicobacter pylori; test: Antimicrobial activity against metronidazole and clarithromycin-resistant Helicobacter pylori v1254 at pH 7 by microdilution method; assay type: functional
[11] = tested on: Helicobacter pylori; test: Antimicrobial activity against metronidazole and clarithromycin-resistant Helicobacter pylori v633 at pH 7 by microdilution method; assay type: functional
[12] = Antimicrobial activity against Helicobacter pylori 26695 ATCC 700392 at pH 8 by microdilution method; assay type: functional
[13] = tested on: Helicobacter pylori; test: Antimicrobial activity against metronidazole and clarithromycin-resistant Helicobacter pylori v633 at pH 5 by microdilution method; assay type: functional
[14] = tested on: Helicobacter pylori; test: Antimicrobial activity against metronidazole and clarithromycin-resistant Helicobacter pylori v633 at pH 8 by microdilution method; assay type: functional
[15] = tested on: Helicobacter pylori; test: Antimicrobial activity against metronidazole and clarithromycin-resistant Helicobacter pylori v1254 at pH 8 by microdilution method; assay type: functional
[16] = tested on: AGS; test: Inhibition of Helicobacter pylori 26695 ATCC 700392 cytotoxin A-induced vacuolation in human AGS cells after 24 hrs by neutral red uptake assay; assay type: functional, cell-based
[17] = tested on: Helicobacter pylori; test: Inhibition of Helicobacter pylori 26695 ATCC 700392 CagA-induced pathogenesis in human AGS cells assessed as reduction of hummingbird phenotype of host cells at 20 ug/ml after 6 hrs; assay type: functional; conditions: ATCC 700392 26695, AGS
[18] = tested on: AGS; test: Inhibition of NFkappaB activation expressed in human AGS cells infected with Helicobacter pylori at 20 ug/ml relative to control; assay type: cell-based
[19] = tested on: Helicobacter pylori; test: Inhibition of Helicobacter pylori invasion to human AGS cells at 10 ug/ml after 6 hrs by gentamicin assay relative to control; assay type: functional
[20] = tested on: Helicobacter pylori; test: Inhibition of Helicobacter pylori adhesion to human AGS cells at 5 ug/ml after 6 hrs by gentamicin assay relative to control; assay type: functional
[21] = tested on: Helicobacter pylori; test: Inhibition of Helicobacter pylori adhesion to human AGS cells at 10 ug/ml after 6 hrs by gentamicin assay relative to control; assay type: functional
[22] = tested on: AGS; test: Inhibition of NFkappaB activation expressed in human AGS cells infected with Helicobacter pylori assessed as inhibition of IL-8 production at 20 ug/ml relative to control; assay type: cell-based
[23] = tested on: Helicobacter pylori; test: Antimicrobial activity against Helicobacter pylori infected in human AGS cells assessed as inhibition of CagA gene translocation after 6 hrs by immunoblot analysis; assay type: functional, organism-based
[24] = tested on: Helicobacter pylori; test: Antimicrobial activity against Helicobacter pylori infected in human AGS cells assessed as reduction of tyrosine phosphorylated CagA level translocation after 6 hrs by immunoblot analysis; assay type: functional, organism-based
[25] = tested on: Helicobacter pylori; test: Antimicrobial activity against Helicobacter pylori infected in human AGS cells assessed as reduction of tyrosine phosphorylated CagA level translocation at 20 ug/ml after 6 hrs by immunoblot analysis; assay type: functional
[26] = tested on: Helicobacter pylori; test: Inhibition of Helicobacter pylori 26695 ATCC 700392 CagA-induced pathogenesis in human AGS cells assessed as reduction of hummingbird phenotype of host cells after 6 hrs; assay type: functional, cell-based; conditions: ATCC 700392 26695
[27] = tested on: Helicobacter pylori; test: Antimicrobial activity against Helicobacter pylori infected in human AGS cells assessed as inhibition of CagA gene translocation at 20 ug/ml after 6 hrs by immunoblot analysis; assay type: functional
[28] = tested on: Helicobacter pylori; test: Inhibition of Helicobacter pylori invasion to human AGS cells at 5 ug/ml after 6 hrs by gentamicin assay relative to control; assay type: functional
[29] = tested on: AGS; test: Inhibition of NFkappaB activation expressed in human AGS cells infected with Helicobacter pylori at 10 ug/ml relative to control; assay type: cell-based

COc1cc(Cn2c(-c3ccccc3Cl)nc3cc(C)ccc32)cc(OC)c1OC
Activity [1]: Toxic | zone of inhibition at 100 µg/mL [2]: 21 mm

CC1(C)S[C@@H]2[C@H](NC(=O)[C@H](N)c3ccc(O)cc3)C(=O)N2[C@H]1C(=O)O [AMOXICILLIN]
zone of inhibition at 50 µg/mL [3]: 14 mm

COc1cc(Cn2c(-c3cccc(C)c3)nc3cc(C)ccc32)cc(OC)c1OC
zone of inhibition at 100 µg/mL [2]: 19 mm

COc1cc(Cn2c(-c3ccccc3)nc3ccc(C)cc32)cc(OC)c1OC
Activity [1]: Toxic | zone of inhibition at 100 µg/mL [2]: 21 mm

Cc1ncc([N+](=O)[O-])n1CCO [METRONIDAZOLE]
MBC [4]: 6.25 µg/mL (≈ 36.5 µM) | MBC [5]: 12.5 µg/mL (≈ 73 µM) | MBC [6]: 100 µg/mL (≈ 584 µM) | zone of inhibition at 800 µg/mL [7]: 7 mm | inhibition at 20 µg/mL [8]: 20% | inhibition at 20 µg/mL [9]: 20% | MBC [10]: 100 µg/mL (≈ 584 µM) | MBC [11]: 50 µg/mL (≈ 292 µM) | MBC [12]: 12.5 µg/mL (≈ 73 µM) | MBC [13]: 50 µg/mL (≈ 292 µM) | MBC [14]: 50 µg/mL (≈ 292 µM) | MBC [15]: 100 µg/mL (≈ 584 µM)

COc1cc(Cn2c(-c3ccccc3)nc3cc(C)ccc32)cc(OC)c1OC
Activity [1]: Toxic | zone of inhibition at 100 µg/mL [2]: 22 mm

CC[C@H]1OC(=O)[C@H](C)[C@@H](O[C@H]2C[C@@](C)(OC)[C@@H](O)[C@H](C)O2)[C@H](C)[C@@H](O[C@@H]2O[C@H](C)C[C@H](N(C)C)[C@H]2O)[C@](C)(OC)C[C@@H](C)C(=O)[C@H](C)[C@@H](O)[C@]1(C)O [CLARITHROMYCIN]
zone of inhibition at 50 µg/mL [3]: 21 mm

COc1cc(Cn2c(-c3ccccc3F)nc3cc(C)ccc32)cc(OC)c1OC
inhibition [16]: Dose-dependent effect | Activity [1]: Non-toxic | inhibition at 20 µg/mL [17]: 98% | inhibition [18]: 42% | MBC [4]: 25 µg/mL (≈ 61.5 µM) | inhibition at 10 µg/mL [19]: 28% | inhibition at 5 µg/mL [20]: 6% | inhibition at 10 µg/mL [21]: 31% | zone of inhibition at 100 µg/mL [2]: 24 mm | inhibition [22]: 85% | inhibition [23]: Dose-dependent effect | MBC [5]: 25 µg/mL (≈ 61.5 µM) | MBC [6]: 12.5 µg/mL (≈ 30.8 µM) | inhibition [24]: Dose-dependent effect | inhibition at 20 µg/mL [25]: 55% | inhibition [26]: Dose-dependent effect | inhibition at 20 µg/mL [8]: 58% | inhibition at 20 µg/mL [27]: 55% | inhibition at 5 µg/mL [28]: 7% | inhibition at 20 µg/mL [9]: 52% | MBC [10]: 12.5 µg/mL (≈ 30.8 µM) | MBC [11]: 12.5 µg/mL (≈ 30.8 µM) | MBC [12]: 25 µg/mL (≈ 61.5 µM) | MBC [13]: 12.5 µg/mL (≈ 30.8 µM) | inhibition [29]: 14% | MBC [14]: 12.5 µg/mL (≈ 30.8 µM) | MBC [15]: 12.5 µg/mL (≈ 30.8 µM)

COc1cc(Cn2c(-c3ccc(Cl)c(Cl)c3)nc3cc(C)ccc32)cc(OC)c1OC
zone of inhibition at 100 µg/mL [2]: 9 mm

COc1cc(Cn2c(-c3ccccc3)nc3cc(Cl)ccc32)cc(OC)c1OC
zone of inhibition at 100 µg/mL [2]: 11 mm

c1ccc2[nH]cnc2c1 [BENZIMIDAZOLE]
inhibition [16]: Active | inhibition [18]: Active | MBC [4]: > 800 µg/mL | zone of inhibition at 100 µg/mL [2]: 0 mm | MBC [5]: 400 µg/mL (≈ 3390 µM) | MBC [6]: > 800 µg/mL | MBC [10]: 400 µg/mL (≈ 3390 µM) | MBC [11]: 400 µg/mL (≈ 3390 µM) | MBC [12]: > 800 µg/mL | MBC [13]: > 800 µg/mL | MBC [14]: 400 µg/mL (≈ 3390 µM) | MBC [15]: 400 µg/mL (≈ 3390 µM)

COc1cc(Cn2c(-c3cc(F)ccc3F)nc3cc(C)ccc32)cc(OC)c1OC
zone of inhibition at 100 µg/mL [2]: 11 mm

COc1cc(Cn2c(-c3ccc(C#N)cc3)nc3cc(C)ccc32)cc(OC)c1OC
zone of inhibition at 100 µg/mL [2]: 12 mm

COc1cc(Cn2c(-c3ccccc3C)nc3cc(C)ccc32)cc(OC)c1OC
zone of inhibition at 100 µg/mL [2]: 14 mm

COc1ccc2nc(-c3ccccc3)n(Cc3cc(OC)c(OC)c(OC)c3)c2c1
zone of inhibition at 100 µg/mL [2]: 0 mm

COc1ccc(-c2nc3cc(C)ccc3n2Cc2cc(OC)c(OC)c(OC)c2)cc1
Activity [1]: Toxic | zone of inhibition at 100 µg/mL [2]: 22 mm

COc1ccc(-c2nc3cc(Cl)ccc3n2Cc2cc(OC)c(OC)c(OC)c2)cc1
zone of inhibition at 100 µg/mL [2]: 11 mm

COc1cc(Cn2c(-c3ccc(F)cc3)nc3cc(C)ccc32)cc(OC)c1OC
zone of inhibition at 100 µg/mL [2]: 17 mm

COc1cc(Cn2c(-c3cccc4ccccc34)nc3cc(C)ccc32)cc(OC)c1OC
zone of inhibition at 100 µg/mL [2]: 12 mm

COc1cccc(-c2nc3cc(C)ccc3n2Cc2cc(OC)c(OC)c(OC)c2)c1
zone of inhibition at 100 µg/mL [2]: 0 mm

COc1cc(Cn2c(-c3ccc4ccccc4c3)nc3cc(C)ccc32)cc(OC)c1OC
zone of inhibition at 100 µg/mL [2]: 0 mm

COc1cc(Cn2c(-c3ccc(Cl)cc3Cl)nc3cc(C)ccc32)cc(OC)c1OC
zone of inhibition at 100 µg/mL [2]: 11 mm

COc1cc(Cn2c(-c3ccccc3)nc3ccc(Cl)cc32)cc(OC)c1OC
zone of inhibition at 100 µg/mL [2]: 14 mm

COc1cc(Cn2c(-c3cccc(F)c3)nc3cc(C)ccc32)cc(OC)c1OC
zone of inhibition at 100 µg/mL [2]: 0 mm

COc1ccc(-c2nc3ccc(C)cc3n2Cc2cc(OC)c(OC)c(OC)c2)cc1
zone of inhibition at 100 µg/mL [2]: 15 mm

COc1cc(Cn2c(-c3ccccc3)nc3cc(F)ccc32)cc(OC)c1OC
zone of inhibition at 100 µg/mL [2]: 17 mm

COc1ccccc1-c1nc2cc(C)ccc2n1Cc1cc(OC)c(OC)c(OC)c1
Activity [1]: Toxic | zone of inhibition at 100 µg/mL [2]: 21 mm

COc1cc(Cn2c(-c3ccccc3)nc3cc(C)c(C)cc32)cc(OC)c1OC
zone of inhibition at 100 µg/mL [2]: 16 mm

COc1cc(Cn2c(-c3c(F)cccc3F)nc3cc(C)ccc32)cc(OC)c1OC
Activity [1]: Toxic | zone of inhibition at 100 µg/mL [2]: 24 mm

COc1cc(Cn2c(-c3cccc(Cl)c3Cl)nc3cc(C)ccc32)cc(OC)c1OC
zone of inhibition at 100 µg/mL [2]: 13 mm

COc1ccc(-c2nc3ccc(Cl)cc3n2Cc2cc(OC)c(OC)c(OC)c2)cc1
zone of inhibition at 100 µg/mL [2]: 12 mm
